Drawing on patent US20250221966A1, “RXFP1 AGONISTS” (BRISTOL-MYERS SQUIBB COMPANY, priority 2021, published 2025), this text covers EC50 for 40 compounds.

For orientation: EC50 means the concentration at which the effect is half-maximal.

Each structure is given as a SMILES string.

For the test, the target named is T1, human RXFP1 (Homo sapiens, UniProt Q9HBX9).
T1 construct: expressed in transfected cells
T1 sequence (Q9HBX9 1-757): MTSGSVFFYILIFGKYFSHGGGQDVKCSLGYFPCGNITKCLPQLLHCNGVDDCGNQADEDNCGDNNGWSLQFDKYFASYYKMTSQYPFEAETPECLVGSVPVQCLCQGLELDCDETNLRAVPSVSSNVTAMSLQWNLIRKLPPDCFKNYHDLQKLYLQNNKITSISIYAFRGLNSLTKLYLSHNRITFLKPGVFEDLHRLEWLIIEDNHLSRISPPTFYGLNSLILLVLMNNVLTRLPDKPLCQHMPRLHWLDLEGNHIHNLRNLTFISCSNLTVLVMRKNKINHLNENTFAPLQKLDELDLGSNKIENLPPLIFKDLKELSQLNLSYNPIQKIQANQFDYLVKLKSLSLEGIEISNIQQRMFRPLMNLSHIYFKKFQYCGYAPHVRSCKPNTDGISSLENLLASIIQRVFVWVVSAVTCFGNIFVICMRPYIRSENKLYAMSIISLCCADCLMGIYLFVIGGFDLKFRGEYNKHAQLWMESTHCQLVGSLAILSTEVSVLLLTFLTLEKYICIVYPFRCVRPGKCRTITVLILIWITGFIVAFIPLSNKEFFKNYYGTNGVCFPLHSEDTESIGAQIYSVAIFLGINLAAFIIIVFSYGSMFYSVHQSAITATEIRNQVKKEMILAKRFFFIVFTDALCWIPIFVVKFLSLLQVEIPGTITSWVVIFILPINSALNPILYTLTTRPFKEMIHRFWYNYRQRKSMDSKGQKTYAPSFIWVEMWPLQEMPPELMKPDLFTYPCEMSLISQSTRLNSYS
The test is described as follows: RXFP1 cAMP assay (hRXFP1 HEK293 cAMP assay, HTRF). The format is cell-based. Particulars: HEK293 cells stably expressing human RXFP1, 30 min at room temperature, read-out: cAMP hRXFP1 HEK293 Assay EC50. The procedure, abridged:
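HEK293 cells stably expressing human RXFP1 were suspended in HBSS (Ca/Mg) with 20 mM HEPES, 0.05% BSA and 0.5 mM IBMX, then treated with compounds (0.010 nM–50 μM, 2% DMSO final) for 30 min at room temperature. Intracellular cAMP was measured by HTRF, and potency was derived from 4-parameter logistic fits.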
In the case of `CNC(=O)c1ccc(F)c(-c2ccc(OC)c(C(=O)N[C@@H]3C4CCC(/C4=C/c4cnoc4)[C@@H]3C(=O)Nc3ccc(F)c(C(F)(F)F)c3)c2)c1` (stereo partly shown) [compound 165], the EC50 was found to be 40 nM.

As for `COc1ccc(-c2ccc(C(=O)O)cc2)cc1C(=O)N[C@@H]1C2CCC(/C2=C/C2CC2)[C@@H]1C(=O)Nc1ccc(F)c(C(F)(F)F)c1` (stereo partly shown) [compound 167], the EC50 was 16 nM.

Regarding `COc1ccc(-c2ccc(C(=O)O)cc2F)cc1C(=O)N[C@@H]1C2CCC(/C2=C/c2ccccc2)[C@@H]1C(=O)Nc1ccc(F)c(C(F)(F)F)c1` (stereo partly shown) [compound 169], the EC50 was 44 nM.

For the compound `COc1ccc(-c2cc(C3OC(=O)N(C)C3=O)ccc2F)cc1C(=O)N[C@@H]1C2CCC(/C2=C/C2CC2)[C@@H]1C(=O)Nc1ccc(F)c(C(F)(F)F)c1` (stereo partly shown) [compound 173], the EC50 is 7 nM.

For the compound `COc1ccc(-c2cc(NC(=O)CC(=O)O)ccc2F)cc1C(=O)N[C@@H]1C2CCC(/C2=C/c2cnoc2)[C@@H]1C(=O)Nc1ccc(F)c(C(F)(F)F)c1` (stereo partly shown) [compound 175], the EC50 amounted to 17 nM.

As to `COc1ccc(-c2cc(CO)ccc2F)cc1C(=O)N[C@@H]1C2CCC(/C2=C/c2cnoc2)[C@@H]1C(=O)Nc1ccc(F)c(C(F)(F)F)c1` (stereo partly shown) [compound 176], the EC50 was 57 nM.

`CNC(=O)OC(C(=O)O)c1ccc(F)c(-c2ccc(OC)c(C(=O)N[C@@H]3C4CCC(/C4=C/C(F)(F)F)[C@@H]3C(=O)Nc3ccc(F)c(C(F)(F)F)c3)c2)c1` (stereo partly shown) [compound 180]: the EC50 came to 5 nM.

As to `COc1ccc(-c2cc(C(O)C(=O)O)ccc2F)cc1C(=O)N[C@@H]1C2CCC(/C2=C/C2CC2)[C@@H]1C(=O)Nc1ccc(F)c(C(F)(F)F)c1` (stereo partly shown) [compound 181], the EC50 was determined as 6 nM.

Turning to `COc1ccc(-c2cc(C(NC(C)=O)C(=O)O)ccc2F)cc1C(=O)N[C@@H]1C2CCC(/C2=C/C2CC2)[C@@H]1C(=O)Nc1ccc(F)c(C(F)(F)F)c1` (stereo partly shown) [compound 184], the EC50 stood at 11 nM.

For `COC(=O)NC(C(=O)O)c1ccc(F)c(-c2ccc(OC)c(C(=O)N[C@@H]3C4CCC(/C4=C/C(F)(F)F)[C@@H]3C(=O)Nc3ccc(F)c(C(F)(F)F)c3)c2)c1` (stereo partly shown) [compound 185], the EC50 was found to be 15 nM.

Consider `COC(=O)NC(C(=O)O)c1ccc(F)c(-c2ccc(OC)c(C(=O)N[C@@H]3C4CCC(/C4=C/C(F)(F)F)[C@@H]3C(=O)Nc3ccc(F)c(C(F)(F)F)c3)c2)c1` (stereo partly shown) [compound 186], for which the EC50 was 25 nM.

In the case of `COc1ccc(-c2cc(CC(=O)O)ccc2F)cc1C(=O)N[C@@H]1C2CCC(/C2=C/c2ccccc2)[C@@H]1C(=O)Nc1ccc(F)c(C(F)(F)F)c1` (stereo partly shown) [compound 187], the EC50 is 19 nM.

With `COc1ccc(-c2ccc(CC(=O)O)cc2)cc1C(=O)N[C@@H]1C2CCC(/C2=C/c2cnoc2)[C@@H]1C(=O)Nc1ccc(F)c(C(F)(F)F)c1` (stereo partly shown) [compound 188], the EC50 stood at 20 nM.

Turning to `COc1ccc(-c2cc(CC(=O)O)ccc2F)cc1C(=O)N[C@@H]1C2CCC(/C2=C/C2CC2)[C@@H]1C(=O)Nc1ccc(F)c(C(F)(F)F)c1` (stereo partly shown) [compound 189], the EC50 is 10 nM.

`COc1ccc(-c2cc(C(=O)N3CCCC3)ccc2F)cc1C(=O)N[C@@H]1C2CCC(/C2=C/c2cnoc2)[C@@H]1C(=O)Nc1ccc(F)c(C(F)(F)F)c1` (stereo partly shown) [compound 191]: the EC50 came out at 42 nM.

Consider `COc1ccc(-c2cc(C(=O)NCC(=O)O)ccc2F)cc1C(=O)N[C@@H]1C2CCC(C2=C(C)C)[C@@H]1C(=O)Nc1ccc(F)c(C(F)(F)F)c1` (stereo partly shown) [compound 193], for which the EC50 came to 300 nM.

For `COc1ccc(-c2ccc(C(=O)NCC(=O)O)cc2F)cc1C(=O)N[C@@H]1C2CCC(/C2=C/c2ccccc2)[C@@H]1C(=O)Nc1ccc(F)c(C(F)(F)F)c1` (stereo partly shown) [compound 194], the EC50 amounted to 5 nM.

`COc1ccc(-c2ccc(C(=O)N(C)C)cc2F)cc1C(=O)N[C@@H]1C2CCC(/C2=C/c2ccccc2)[C@@H]1C(=O)Nc1ccc(F)c(C(F)(F)F)c1` (stereo partly shown) [compound 195]: the EC50 is 29 nM.

As to `CNC(=O)c1ccc(-c2ccc(OC)c(C(=O)N[C@@H]3C4CCC(/C4=C/c4ccccc4)[C@@H]3C(=O)Nc3ccc(F)c(C(F)(F)F)c3)c2)c(F)c1` (stereo partly shown) [compound 196], the EC50 is 45 nM.

With `COCCNC(=O)c1ccc(-c2ccc(OC)c(C(=O)N[C@@H]3C4CCC(/C4=C/c4ccccc4)[C@@H]3C(=O)Nc3ccc(F)c(C(F)(F)F)c3)c2)c(F)c1` (stereo partly shown) [compound 197], the EC50 is 51 nM.

On to `COc1ccc(-c2ccc(C(=O)NCCN3CCOCC3)cc2F)cc1C(=O)N[C@@H]1C2CCC(/C2=C/c2ccccc2)[C@@H]1C(=O)Nc1ccc(F)c(C(F)(F)F)c1` (stereo partly shown) [compound 198], for which the EC50 was found to be 76 nM.

`COCCOc1ccc(-c2cc(C(=O)O)ccc2F)cc1C(=O)N[C@@H]1C2CCC(/C2=C/C2CC2)[C@@H]1C(=O)Nc1ccc(F)c(C(F)(F)F)c1` (stereo partly shown) [compound 200]: the EC50 is 37 nM.

For the compound `COc1ccc(-c2cc(C(=O)O)ccc2F)cc1C(=O)N[C@@H]1C2CCC(/C2=C/C2CC2)[C@@H]1C(=O)NC1CCC1` (stereo partly shown) [compound 202], the EC50 was 180 nM.

Regarding `COc1ccc(-c2cc(C(=O)O)ccc2F)cc1C(=O)N[C@@H]1C2CCC(/C2=C/C2CC2)[C@@H]1C(=O)NC1CCCCC1` (stereo partly shown) [compound 203], the EC50 stood at 322 nM.

On to `COc1ccc(-c2cc(C(=O)O)ccc2F)cc1C(=O)N[C@@H]1C2CCC(/C2=C/C2CC2)[C@@H]1C(=O)NC1CCOCC1` (stereo partly shown) [compound 204], for which the EC50 was found to be 3200 nM.

As to `COc1ccc(-c2cc(C(OC(=O)Nc3ccccc3)C(=O)O)ccc2F)cc1C(=O)N[C@@H]1C2CCC(/C2=C/C(F)(F)F)[C@@H]1C(=O)Nc1ccc(F)c(C(F)(F)F)c1` (stereo partly shown) [compound 205], the EC50 came out at 1 nM.

As for `COc1ccc(-c2cc(C(OC(=O)NC3CC3)C(F)(F)F)ccc2F)cc1C(=O)N[C@@H]1C2CCC(/C2=C/C2CC2)[C@@H]1C(=O)Nc1ccc(F)c(C(F)(F)F)c1` (stereo partly shown) [compound 208], the EC50 turned out to be 1 nM.

Regarding `COc1ccc(-c2cc(C(OC(=O)N(C)C3CCC3)C(F)(F)F)ccc2F)cc1C(=O)N[C@@H]1C2CCC(/C2=C/C2CC2)[C@@H]1C(=O)Nc1ccc(F)c(C(F)(F)F)c1` (stereo partly shown) [compound 209], the EC50 worked out at 1 nM.

For the compound `COc1ccc(-c2cc(C(OC(=O)NC(C)(C)C)C(F)(F)F)ccc2F)cc1C(=O)N[C@@H]1C2CCC(/C2=C/C2CC2)[C@@H]1C(=O)Nc1ccc(F)c(C(F)(F)F)c1` (stereo partly shown) [compound 210], the EC50 was 1 nM.

Take `COc1ccc(-c2cc(C(OC(=O)NC3CCC3)C(F)(F)F)ccc2F)cc1C(=O)N[C@@H]1C2CCC(/C2=C/C2CC2)[C@@H]1C(=O)Nc1ccc(F)c(C(F)(F)F)c1` (stereo partly shown) [compound 211]: the EC50 came to 1 nM.

Regarding `CNC(=O)OC(c1ccc(F)c(-c2ccc(OC)c(C(=O)N[C@@H]3C4CCC(/C4=C/C4CC4)[C@@H]3C(=O)Nc3ccc(F)c(C(F)(F)F)c3)c2)c1)C(F)(F)F` (stereo partly shown) [compound 212], the EC50 came to 1 nM.

Turning to `COc1ccc(-c2cc(C(OC(=O)NCCC(F)(F)F)C(F)(F)F)ccc2F)cc1C(=O)N[C@@H]1C2CCC(/C2=C/C2CC2)[C@@H]1C(=O)Nc1ccc(F)c(C(F)(F)F)c1` (stereo partly shown) [compound 213], the EC50 came out at 2 nM.

For the compound `CONC(=O)OC(c1ccc(F)c(-c2ccc(OC)c(C(=O)N[C@@H]3C4CCC(/C4=C/C4CC4)[C@@H]3C(=O)Nc3ccc(F)c(C(F)(F)F)c3)c2)c1)C(F)(F)F` (stereo partly shown) [compound 214], the EC50 turned out to be 2 nM.

`COc1ccc(-c2cc(C(OC(=O)NC3CC4(CC4)C3)C(F)(F)F)ccc2F)cc1C(=O)N[C@@H]1C2CCC(/C2=C/C2CC2)[C@@H]1C(=O)Nc1ccc(F)c(C(F)(F)F)c1` (stereo partly shown) [compound 215]: the EC50 worked out at 2 nM.

Consider `COc1ccc(-c2cc(C(OC(=O)N3CCC3)C(F)(F)F)ccc2F)cc1C(=O)N[C@@H]1C2CCC(/C2=C/C2CC2)[C@@H]1C(=O)Nc1ccc(F)c(C(F)(F)F)c1` (stereo partly shown) [compound 216], for which the EC50 came to 2 nM.

For `CNC(=O)OC(c1ccc(F)c(-c2ccc(OC)c(C(=O)N[C@@H]3C4CCC(/C4=C/C4CC4)[C@@H]3C(=O)Nc3ccc(F)c(C(F)(F)F)c3)c2)c1)C(F)(F)F` (stereo partly shown) [compound 217], the 50% effective concentration (EC50) came to 2 nM.

For the compound `COc1ccc(-c2cc(C(OC(=O)NC3COC3)C(F)(F)F)ccc2F)cc1C(=O)N[C@@H]1C2CCC(/C2=C/C2CC2)[C@@H]1C(=O)Nc1ccc(F)c(C(F)(F)F)c1` (stereo partly shown) [compound 218], the EC50 was 2 nM.

Regarding `COc1ccc(-c2cc(C(OC(=O)NC3CCCC3)C(F)(F)F)ccc2F)cc1C(=O)N[C@@H]1C2CCC(/C2=C/C2CC2)[C@@H]1C(=O)Nc1ccc(F)c(C(F)(F)F)c1` (stereo partly shown) [compound 219], the EC50 is 3 nM.

On to `COc1ccc(-c2cc(C(OC(=O)NCC(F)(F)F)C(F)(F)F)ccc2F)cc1C(=O)N[C@@H]1C2CCC(/C2=C/C2CC2)[C@@H]1C(=O)Nc1ccc(F)c(C(F)(F)F)c1` (stereo partly shown) [compound 220], for which the EC50 came out at 8 nM.

With `COc1ccc(-c2cc(C(OC(=O)NC3CCC3)C(F)(F)F)ccc2F)cc1C(=O)N[C@@H]1C2CCC(/C2=C/C2CC2)[C@@H]1C(=O)Nc1ccc(F)c(C(F)(F)F)c1` (stereo partly shown) [compound 221], the EC50 worked out at 26 nM.
